# Laboratory results as given in ChEMBL document CHEMBL5576076, “Bioisosteric heterocyclic analogues of natural bioactive flavonoids by scaffold-hopping approaches: State-of-the-art and perspectives in medicinal chemistry” (Bioorg Med Chem, 2024).
# What was measured:
# Tubulin = assay: Inhibition of tubulin polymerization (unknown origin); assay type: protein-complex assay, Homo sapiens
# Tubulin (Homo sapiens) = Tubulin (Homo sapiens) (UniProt P68371+Q9H4B7+P0DPH7+P68366+Q13509+Q71U36+P04350+Q3ZCM7+P07437+P68363+Q9BQE3+Q6PEY2+Q13885+Q9BVA1+Q9BUF5); assay: Inhibition of [3H]-colchicine binding to tubulin (unknown origin) at 5 uM relative to control; assay type: protein-complex assay
# HT-29 = assay: Antiproliferative activity against human HT-29 cells assessed as reduction in cell growth incubated for 72 hrs by MTT assay; assay type: functional, cell-based; details: HT-29, 72 h
# Jurkat = assay: Antiproliferative activity against human Jurkat cells assessed as reduction in cell growth incubated for 72 hrs by MTT assay; assay type: functional, cell-based
# A-375 = assay: Antiproliferative activity against human A-375 cells assessed as reduction in cell growth incubated for 72 hrs by MTT assay; assay type: functional, cell-based; details: A-375, 72 h
# NCI-H295R = assay: Antiproliferative activity against human NCI-H295R cells assessed as reduction in cell viability incubated for 72 hrs by MTT assay; assay type: functional, cell-based
# OE19 = assay: Antiproliferative activity against human OE19 cells assessed as reduction in cell growth incubated for 72 hrs by MTT assay; assay type: functional, cell-based; details: OE19, 72 h
# MDA-MB-468 = assay: Antiproliferative activity against human MDA-MB-468 cells assessed as reduction in cell growth incubated for 72 hrs by MTT assay; assay type: functional, cell-based; details: MDA-MB-468, 72 h
# ARO = assay: Antiproliferative activity against human ARO cells assessed as reduction in cell growth incubated for 48 hrs by MTT assay; assay type: functional, cell-based
# MCF7 [1] = assay: Antiproliferative activity against human MCF7 cells assessed as reduction in cell growth incubated for 48 hrs by MTT assay; assay type: functional, cell-based; details: MCF7, 48 h
# OVCAR-3 = assay: Antiproliferative activity against human OVCAR-3 cells assessed as reduction in cell viability incubated for 72 hrs by MTT assay; assay type: functional, cell-based; details: OVCAR-3, 72 h
# HT-1080 = assay: cells; details: Homo sapiens, HT-1080, 48 h
# Description: Antiproliferative activity against human HT-1080 cells assessed as reduction in cell viability incubated for 48 hrs by MTT assay
# [2] = target: Mitogen-activated protein kinase; ERK1/ERK2 (Homo sapiens, UniProt P27361+P28482); assay: Inhibition of RAF1- induced activation of MEK (unknown origin) signalling pathway assessed as reduction in ERK1/2 phosphorylation; assay type: protein assay
# [3] = target: Dual specificity mitogen-activated protein kinase kinase 1 (Homo sapiens, UniProt Q02750); assay: Inhibition of RAF1- induced activation of MEK (unknown origin) signalling pathway assessed as reduction in MEK1 phosphorylation
# Chain of Dual specificity mitogen-activated protein kinase kinase 1 (Q02750 whole entry): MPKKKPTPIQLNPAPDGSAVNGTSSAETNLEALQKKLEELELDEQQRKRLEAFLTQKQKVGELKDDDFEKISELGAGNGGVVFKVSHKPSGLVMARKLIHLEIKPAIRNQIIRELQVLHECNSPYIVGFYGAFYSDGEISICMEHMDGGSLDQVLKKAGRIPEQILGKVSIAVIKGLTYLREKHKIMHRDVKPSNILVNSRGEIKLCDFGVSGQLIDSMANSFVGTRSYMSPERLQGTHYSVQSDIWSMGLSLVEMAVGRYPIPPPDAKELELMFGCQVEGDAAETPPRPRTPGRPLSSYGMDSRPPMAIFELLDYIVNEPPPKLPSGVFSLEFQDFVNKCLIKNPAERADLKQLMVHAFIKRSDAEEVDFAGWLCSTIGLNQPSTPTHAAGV
# WiDr = assay: Antiproliferative activity against human WiDr cells assessed as reduction in cell viability incubated for 48 hrs by MTT assay; assay type: functional, cell-based
# [4] = target: Epidermal growth factor receptor (Homo sapiens, UniProt P00533); assay: Inhibition of EGFR (unknown origin)
# Chain of Epidermal growth factor receptor (P00533 whole entry): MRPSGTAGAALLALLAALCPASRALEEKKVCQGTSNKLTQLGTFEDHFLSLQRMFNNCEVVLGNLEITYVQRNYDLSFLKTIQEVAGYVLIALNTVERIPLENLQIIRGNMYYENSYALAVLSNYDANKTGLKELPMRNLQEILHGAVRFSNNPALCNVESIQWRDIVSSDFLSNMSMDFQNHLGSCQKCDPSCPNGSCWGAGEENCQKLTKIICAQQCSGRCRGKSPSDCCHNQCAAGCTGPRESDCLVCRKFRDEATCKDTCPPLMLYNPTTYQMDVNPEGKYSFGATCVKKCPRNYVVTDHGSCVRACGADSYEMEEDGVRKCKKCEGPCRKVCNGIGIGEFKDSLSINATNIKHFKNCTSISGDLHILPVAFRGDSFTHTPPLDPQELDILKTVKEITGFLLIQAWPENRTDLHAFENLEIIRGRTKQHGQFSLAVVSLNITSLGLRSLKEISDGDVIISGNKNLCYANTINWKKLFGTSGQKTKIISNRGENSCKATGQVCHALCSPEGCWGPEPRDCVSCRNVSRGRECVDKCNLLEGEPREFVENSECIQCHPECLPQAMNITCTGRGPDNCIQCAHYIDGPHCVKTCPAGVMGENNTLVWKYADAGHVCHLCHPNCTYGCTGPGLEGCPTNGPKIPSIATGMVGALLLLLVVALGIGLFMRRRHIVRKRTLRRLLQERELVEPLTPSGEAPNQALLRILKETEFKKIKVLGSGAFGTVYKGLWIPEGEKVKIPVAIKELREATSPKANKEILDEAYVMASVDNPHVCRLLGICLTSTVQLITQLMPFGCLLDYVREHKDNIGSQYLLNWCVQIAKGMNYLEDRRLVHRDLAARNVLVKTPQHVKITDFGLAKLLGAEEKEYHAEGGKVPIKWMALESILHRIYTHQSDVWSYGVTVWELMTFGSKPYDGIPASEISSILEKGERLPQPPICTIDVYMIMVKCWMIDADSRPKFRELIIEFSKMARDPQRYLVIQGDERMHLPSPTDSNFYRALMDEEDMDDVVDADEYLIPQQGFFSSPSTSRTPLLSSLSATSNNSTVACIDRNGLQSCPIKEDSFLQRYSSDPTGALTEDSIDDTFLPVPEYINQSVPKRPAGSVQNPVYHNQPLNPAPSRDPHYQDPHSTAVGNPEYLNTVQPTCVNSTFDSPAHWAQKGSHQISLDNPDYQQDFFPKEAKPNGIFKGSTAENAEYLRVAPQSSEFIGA
# Homo sapiens = organism: Homo sapiens; assay: Inhibition of human Lipoxygenase at 100 uM relative to control
# [5] = Inhibition of human LOX
# [6] = system: Human immunodeficiency virus 1; assay: Antiviral activity against HIV1 infected in H9 cells assessed as reduction in viral replication; assay type: functional; details: Human immunodeficiency virus 1, H9; read-out: ED50 (the source's name)
# OE33 = assay: Antiproliferative activity against human OE33 cells assessed as reduction in cell growth incubated for 72 hrs by MTT assay; assay type: functional, cell-based; details: OE33, 72 h
# PT-45 = assay: Antiproliferative activity against human PT-45 cells assessed as reduction in cell growth incubated for 72 hrs by MTT assay; assay type: functional, cell-based; details: PT-45, 72 h
# A549 [7] = assay: Antiproliferative activity against human A549 cells assessed as reduction in cell growth incubated for 72 hrs by MTT assay; assay type: functional, cell-based; details: A549, 72 h
# HeLa = assay: Antiproliferative activity against human HeLa cells assessed as reduction in cell viability incubated for 72 hrs by MTT assay; assay type: functional, cell-based
# HepG2 [8] = assay: Antiproliferative activity against human HepG2 cells assessed as reduction in cell viability incubated for 72 hrs by MTT assay; assay type: functional, cell-based; details: HepG2, 72 h
# A549 [9] = assay: Antiproliferative activity against human A549 cells assessed as reduction in cell growth incubated for 48 hrs by MTT assay; assay type: functional, cell-based; details: A549, 48 h
# HepG2 [10] = assay: Cytotoxicity against human HepG2 cells assessed as reduction in cell growth incubated for 48 hrs by MTT assay; assay type: functional, cell-based; details: HepG2, 48 h
# KB = assay: Cytotoxicity against human KB cells assessed as reduction in cell growth incubated for 48 hrs by MTT assay; assay type: functional, cell-based
# [11] = system: Panel NCI-60 (60 carcinoma cell lines); assay: Antiproliferative activity against human Panel NCI-60 (60 carcinoma cell lines) assessed as reduction in cell viability; assay type: functional, cell-based
# Influenza A virus = assay: Antiviral activity against Influenza A virus H1N1 infected in dog MDCK cells assessed as inhibition in virus-induced cytopathic effect incubated for 48 hrs by SRB assay; assay type: functional, organism-based
# [12] = Inhibition of Influenza A virus H1N1 neuraminidase
# MV4-11 = assay: Antiproliferative activity against human MV4-11 cells assessed as reduction in cell growth incubated for 48 hrs by MTT assay; assay type: functional, cell-based; details: MV4-11, 48 h
# HL-60 = assay: Antiproliferative activity against human HL-60 cells assessed as reduction in cell growth incubated for 48 hrs by MTT assay; assay type: functional, cell-based; details: HL-60, 48 h
# MCF7 [13] = assay: cells; details: Homo sapiens, MCF7, 72 h
# Cytochrome P450 1A2 = Cytochrome P450 1A2 (Homo sapiens, UniProt P05177); assay: Inhibition of CYP1A2 (unknown origin); assay type: ADME
# Chain of Cytochrome P450 1A2 (P05177 whole entry): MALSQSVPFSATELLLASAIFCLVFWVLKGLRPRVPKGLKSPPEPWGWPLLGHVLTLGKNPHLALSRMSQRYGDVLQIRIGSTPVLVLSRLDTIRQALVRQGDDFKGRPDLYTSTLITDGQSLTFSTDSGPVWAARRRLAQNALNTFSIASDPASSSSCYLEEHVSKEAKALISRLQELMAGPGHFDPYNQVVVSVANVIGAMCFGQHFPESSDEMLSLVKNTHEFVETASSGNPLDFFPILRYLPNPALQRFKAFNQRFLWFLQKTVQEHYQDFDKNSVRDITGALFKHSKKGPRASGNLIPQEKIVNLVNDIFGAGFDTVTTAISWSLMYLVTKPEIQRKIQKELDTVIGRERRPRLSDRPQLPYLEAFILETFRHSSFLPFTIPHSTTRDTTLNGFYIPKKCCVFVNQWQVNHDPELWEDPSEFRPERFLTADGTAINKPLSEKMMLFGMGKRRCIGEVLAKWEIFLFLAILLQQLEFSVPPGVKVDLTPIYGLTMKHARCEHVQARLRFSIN
# Staphylococcus aureus = assay: Antibacterial activity against Methicillin-resistant Staphylococcus aureus assessed as reduction in bacterial growth; assay type: functional
# [14] = target: Quinolone resistance protein NorA (Staphylococcus aureus) (UniProt P0A0J7); assay: Inhibition of NorA efflux pump in Staphylococcus aureus SA1199B overexpressing NorA gene assessed as inhibition of EtBr efflux at 50 uM incubated for 20 mins by fluorometric assay
# DU-145 [15] = assay: Antitumor activity against human DU-145 cells xenografted in Balb/c nude mouse model assessed as tumor growth inhibition at 5 mg/kg, ip administered once daily for 16 days relative to control; assay type: functional; parameters: scale not given: the % may be the effect or the level left; details: time 16 day
# DU-145 [16] = assay: Antiproliferative activity against human DU-145 cells assessed as reduction in cell viability measured for 48 hrs by MTT assay; assay type: functional, cell-based; details: DU-145, 48 h
structure (smiles),measurement,setting,value
O=c1cc(-c2ccccc2)[nH]c2ccc3c(ccn3CC3CC3)c12,IC50,Tubulin,0.9 µM
same,inhibition,Tubulin (Homo sapiens),83%
same,IC50,HT-29,0.02 µM
same,IC50,Jurkat,0.02 µM
same,IC50,A-375,0.02 µM
same,IC50,NCI-H295R,0.02 µM
same,IC50,OE19,0.02 µM
same,IC50,MDA-MB-468,0.02 µM
same,IC50,ARO,0.02 µM
same,IC50,MCF7 [1],0.02 µM
same,IC50,OVCAR-3,0.02 µM
COc1cccc(-c2cc(=O)c3ccccc3s2)c1N,IC50,HT-1080,29.5 µM
same,IC50,[2],13.8 µM
same,IC50,[3],4.35 µM
same,IC50,WiDr,30.5 µM
COc1cc(O)c2c(O)c(-c3cccc(Cl)c3)cnc2c1,IC50,[4],0.04 µM
Oc1ccc2nc(-c3ccccc3O)ccc2c1,inhibition,Homo sapiens,> 80%
same,IC50,[5],6.5 µM
CC(=O)Oc1cc2sc(-c3ccccc3)cc(=O)c2cc1OC(C)=O,EC50,[6],0.65 mg/L
CCOC(=O)CCn1ccc2c3c(=O)cc(-c4ccccc4)[nH]c3ccc21,IC50,OE33,0.005 µM
same,IC50,PT-45,0.005 µM
same,IC50,A549 [7],0.005 µM
same,IC50,Tubulin,0.75 µM
same,inhibition,Tubulin (Homo sapiens),75%
same,IC50,HT-29,0.005 µM
same,IC50,Jurkat,0.005 µM
same,IC50,HeLa,0.005 µM
same,IC50,A-375,0.005 µM
same,IC50,NCI-H295R,0.005 µM
same,IC50,OE19,0.005 µM
same,IC50,HepG2 [8],0.005 µM
same,IC50,MDA-MB-468,0.005 µM
same,IC50,ARO,0.005 µM
same,IC50,MCF7 [1],0.005 µM
same,IC50,A549 [9],0.005 µM
same,IC50,OVCAR-3,0.005 µM
COc1cccc(-c2c[nH]c3c(F)cc(F)cc3c2=O)c1,IC50,HepG2 [10],0.05 µM
same,IC50,KB,0.06 µM
COc1cc(O)c2c(O)cc(-c3cccc(F)c3)nc2c1,IC50,[11],14.5 µM
COc1ccccc1-c1cc(=O)c2ccccc2[nH]1,EC50,Influenza A virus,4.96 µM
same,IC50,[12],1.3 µM
COc1cc2c(cc1CC=C(C)C)C(=O)NC(c1ccc(O)cc1)N2 (configuration not stated),IC50,MV4-11,0.5 µM
same,IC50,HL-60,0.25 µM
COc1cccc(-c2cc(=O)c3ccccc3o2)c1N,IC50,HT-1080,8.6 µM
same,IC50,[2],2.95 µM
same,IC50,WiDr,10 µM
CCOC(=O)C1=C[C@@H](OC(CC)CC)[C@H](NC(C)=O)[C@@H](N)C1 [OSELTAMIVIR],EC50,Influenza A virus,12.7 µM
same,IC50,[12],1.9 µM
COc1ccc(-c2cc(=O)c3cc(OC)c(OC)c(OC)c3o2)cc1,IC50,Tubulin,3 µM
same,inhibition,Tubulin (Homo sapiens),43%
same,IC50,MCF7 [13],1.7 µM
COc1ccc(-c2oc3cc(O)c(OC)c(O)c3c(=O)c2OC)cc1O [CENTAUREIDIN],inhibition,Tubulin (Homo sapiens),35%
same,IC50,MCF7 [13],0.24 µM
COc1cccc(-c2c[nH]c3c(F)cccc3c2=O)c1,IC50,HepG2 [10],0.01 µM
same,IC50,KB,0.03 µM
COc1ccc(-c2cc(=O)c3cc(OC)c4cccc(OC)c4c3[nH]2)cc1,IC50,Cytochrome P450 1A2,0.0041 µM
Oc1ccc(-c2ccc3ccccc3n2)c2ccccc12,inhibition,Homo sapiens,> 80%
same,IC50,[5],6.5 µM
COc1ccc(-c2oc3c(OC)c(OC)c(OC)c(O)c3c(=O)c2OC)cc1O,IC50,Tubulin,0.8 µM
same,inhibition,Tubulin (Homo sapiens),59%
same,IC50,MCF7 [13],0.13 µM
CCCOc1ccc(-c2cc(=O)c3ccccc3o2)cc1,MIC,Staphylococcus aureus,0.4 mg/L
same,inhibition,[14],33.9%
O=c1c(O)c(-c2ccc(O)c(O)c2)oc2cc(O)cc(O)c12 [QUERCETIN],EC50,Influenza A virus,0.56 µM
same,IC50,[12],8.7 µM
O=C1C[C@H](c2cccc(Br)c2)Nc2ccccc21,Activity,DU-145 [15],60%
same,IC50,DU-145 [16],0.4 µM
